PubChem BioAssay AID1963985 (Molecular Pharmacology Branch, DTP, NCI, 2024)

Tested on: 252836-082-R-J2-PDC tumor spheroids, viability
Test: Anticancer human tumor 252836-082-R-J2-PDC patient-derived head and neck squamous cell carcinoma cell line growth inhibition [PI3K]
Details: spheroids with HUVEC and MSC; for IC50: curve of first compound; for viability, T/C: stronger effect = lower value
How it was run: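 High-throughput combination screen: PI3K inhibitors crossed with targeted small molecules on complex spheroids of tumor cells, HUVEC and MSCs at 37 degrees C, 5% CO2. Top concentration was at or near clinical Cmax (otherwise 10 microM), with half-log decrements.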
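Further: spheroids exposed to agents for seven days before readout.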
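Wherever viability, T/C is given: percent of vehicle DMSO control viability so 100% = untreated growth.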

`Cn1cnc2c(F)c(Nc3ccc(Br)cc3Cl)c(C(=O)NOCCO)cc21` + CC(Nc1ncnc2nc[nH]c12)c1cc2cccc(Cl)c2c(=O)n1-c1ccccc1 gave an IC50 (second compound 0.0316 µM) of 2200 nM, an IC50 (second compound 0.1 µM) of 2800 nM and an IC50 (second compound 0.316 µM) of 2610 nM. The IC50 (second compound 1 µM) was 2100 nM, the IC50 (second compound 3.16 µM) was 1480 nM and the IC50 (second compound 10 µM) was 923 nM. For the same molecule, the viability, T/C (second compound 0.0316 µM, first compound 0.00949 µM) was 102%, the viability, T/C (second compound 0.0316 µM, first compound 0.03 µM) was 76.5% and the viability, T/C (second compound 0.0316 µM, first compound 0.0949 µM) was 81.5%. For the same molecule, the viability, T/C (second compound 0.0316 µM, first compound 0.3 µM) was 92.7%, the viability, T/C (second compound 0.0316 µM, first compound 0.949 µM) was 65.5% and the viability, T/C (second compound 0.0316 µM, first compound 3 µM) was 44.2%. For the same molecule, the viability, T/C (second compound 0.1 µM, first compound 0.00949 µM) was 89.9%, the viability, T/C (second compound 0.1 µM, first compound 0.03 µM) was 77.2% and the viability, T/C (second compound 0.1 µM, first compound 0.0949 µM) was 88.8%. The viability, T/C (second compound 0.1 µM, first compound 0.3 µM) was 95.3%, the viability, T/C (second compound 0.1 µM, first compound 0.949 µM) was 74.5% and the viability, T/C (second compound 0.1 µM, first compound 3 µM) was 48.4%. The viability, T/C (second compound 0.316 µM, first compound 0.00949 µM) was 88%, the viability, T/C (second compound 0.316 µM, first compound 0.03 µM) was 87.2% and the viability, T/C (second compound 0.316 µM, first compound 0.0949 µM) was 88.6%. The viability, T/C (second compound 0.316 µM, first compound 0.3 µM) was 79.3%, the viability, T/C (second compound 0.316 µM, first compound 0.949 µM) was 77.1% and the viability, T/C (second compound 0.316 µM, first compound 3 µM) was 46%. It also gave a viability, T/C (second compound 1 µM, first compound 0.00949 µM) of 89.8%, a viability, T/C (second compound 1 µM, first compound 0.03 µM) of 77.3% and a viability, T/C (second compound 1 µM, first compound 0.0949 µM) of 85.3%. For the same molecule, the viability, T/C (second compound 1 µM, first compound 0.3 µM) was 75.6%, the viability, T/C (second compound 1 µM, first compound 0.949 µM) was 72% and the viability, T/C (second compound 1 µM, first compound 3 µM) was 40.4%. For the same molecule, the viability, T/C (second compound 3.16 µM, first compound 0.00949 µM) was 82.1%, the viability, T/C (second compound 3.16 µM, first compound 0.03 µM) was 78.5% and the viability, T/C (second compound 3.16 µM, first compound 0.0949 µM) was 64.6%. For the same molecule, the viability, T/C (second compound 3.16 µM, first compound 0.3 µM) was 66%, the viability, T/C (second compound 3.16 µM, first compound 0.949 µM) was 61.3% and the viability, T/C (second compound 3.16 µM, first compound 3 µM) was 38.6%. For the same molecule, the viability, T/C (second compound 10 µM, first compound 0.00949 µM) was 67.3%, the viability, T/C (second compound 10 µM, first compound 0.03 µM) was 67.1% and the viability, T/C (second compound 10 µM, first compound 0.0949 µM) was 64.2%. For the same molecule, the viability, T/C (second compound 10 µM, first compound 0.3 µM) was 54.4%, the viability, T/C (second compound 10 µM, first compound 0.949 µM) was 53.6% and the viability, T/C (second compound 10 µM, first compound 3 µM) was 31.4%.

For `CC1(C)CCC(CN2CCN(c3ccc(C(=O)NS(=O)(=O)c4ccc(NCC5CCOCC5)c([N+](=O)[O-])c4)c(Oc4cnc5[nH]ccc5c4)c3)CC2)=C(c2ccc(Cl)cc2)C1` + COc1c(OCCCN2CCOCC2)ccc2c3n(c(=NC(=O)c4cnc(N)nc4)nc12)CCN3, the IC50 (second compound 0.00316 µM) was 5820 nM, the IC50 (second compound 0.01 µM) was 5250 nM and the IC50 (second compound 0.0316 µM) was 3230 nM. For the same molecule, the IC50 (second compound 0.1 µM) was less than 31.6 nM, the IC50 (second compound 0.316 µM) was less than 31.6 nM and the IC50 (second compound 1 µM) was less than 31.6 nM. It also gave a viability, T/C (second compound 0.00316 µM, first compound 0.0316 µM) of 89.7%, a viability, T/C (second compound 0.00316 µM, first compound 0.1 µM) of 89.2% and a viability, T/C (second compound 0.00316 µM, first compound 0.316 µM) of 89.3%. It also gave a viability, T/C (second compound 0.00316 µM, first compound 1 µM) of 83.9%, a viability, T/C (second compound 0.00316 µM, first compound 3.16 µM) of 80.7% and a viability, T/C (second compound 0.00316 µM, first compound 10 µM) of 23%. For the same molecule, the viability, T/C (second compound 0.01 µM, first compound 0.0316 µM) was 75.8%, the viability, T/C (second compound 0.01 µM, first compound 0.1 µM) was 67.3% and the viability, T/C (second compound 0.01 µM, first compound 0.316 µM) was 76.2%. It also gave a viability, T/C (second compound 0.01 µM, first compound 1 µM) of 84.8%, a viability, T/C (second compound 0.01 µM, first compound 3.16 µM) of 80.4% and a viability, T/C (second compound 0.01 µM, first compound 10 µM) of 15.9%. It also gave a viability, T/C (second compound 0.0316 µM, first compound 0.0316 µM) of 59.2%, a viability, T/C (second compound 0.0316 µM, first compound 0.1 µM) of 56% and a viability, T/C (second compound 0.0316 µM, first compound 0.316 µM) of 53.3%. It also gave a viability, T/C (second compound 0.0316 µM, first compound 1 µM) of 58.9%, a viability, T/C (second compound 0.0316 µM, first compound 3.16 µM) of 50.2% and a viability, T/C (second compound 0.0316 µM, first compound 10 µM) of 13.9%. It also gave a viability, T/C (second compound 0.1 µM, first compound 0.0316 µM) of 35.9%, a viability, T/C (second compound 0.1 µM, first compound 0.1 µM) of 35.8% and a viability, T/C (second compound 0.1 µM, first compound 0.316 µM) of 37%. The viability, T/C (second compound 0.1 µM, first compound 1 µM) was 35.3%, the viability, T/C (second compound 0.1 µM, first compound 3.16 µM) was 45.2% and the viability, T/C (second compound 0.1 µM, first compound 10 µM) was 14.2%. It also gave a viability, T/C (second compound 0.316 µM, first compound 0.0316 µM) of 17.2%, a viability, T/C (second compound 0.316 µM, first compound 0.1 µM) of 16.5% and a viability, T/C (second compound 0.316 µM, first compound 0.316 µM) of 15.8%. It also gave a viability, T/C (second compound 0.316 µM, first compound 1 µM) of 16.9%, a viability, T/C (second compound 0.316 µM, first compound 3.16 µM) of 17.1% and a viability, T/C (second compound 0.316 µM, first compound 10 µM) of 5.65%. It also gave a viability, T/C (second compound 1 µM, first compound 0.0316 µM) of 5.01%, a viability, T/C (second compound 1 µM, first compound 0.1 µM) of 3.96% and a viability, T/C (second compound 1 µM, first compound 0.316 µM) of 4.59%. The viability, T/C (second compound 1 µM, first compound 1 µM) was 3.64%, the viability, T/C (second compound 1 µM, first compound 3.16 µM) was 4.04% and the viability, T/C (second compound 1 µM, first compound 10 µM) was 1.11%.
